“And” between values parts separate entries of the source, which are not always exact repeats. Equal values may be shown once. “Also recorded” adds a separate entry of the source.
Assays:
mouse = test: Oral bioavailability: in vivo orally active (audiogenic mouse test and/or MES test)
Experimental: The oral bioavailability was tested using the audiogenic mouse test (Audiogenic seizures, R. L. Collins; Chapter 14, pages: 347-372. In: Experimental Models of Epilepsy; By: Pupura, Penry, Tower, Woodbury, Walter, Raven Press, New York, 1972. Standard Book Number: 0-911216-26-X) and/or the MES test.

patients with PSE = test: IPS/PPR proof of concept study: suppression of PPR or reduction of SPR after single oral doses; format: in vivo, human; parameters: key to Maximum reduction of SPR: Overall reduction, Median: SPR steps (number of frequencies eliciting PPR), range 0-14; conditions: for duration of maintained suppression of PPR: 2 individual patients; for PD effect of C7 / Effect maintained: reduction of SPR (≧3) / Effect maintained: suppression of PPR / Onset Time of reduction of SPR (≧3) / Onset Time of suppression of PPR: individual patients
Experimental: In patients with photosensitive epilepsy, a standardized photoparoxysmal response range (SPR) may be determined by performing the IPS with a standardized series of flash frequencies, for instance 14 frequencies from a range of 2 to 60 Hz. SPR is a dimensionless parameter and is defined as the number of frequencies (steps) between the lowest and highest frequencies, e.g. between 2 and 60 Hz, that consistently elicit a PPR. If 14 frequencies are tested, the minimum and maximum possible SPR values are 0 and 14. Zero means complete abolition of reactivity on any stimulation frequency, i.e. complete abolishment of the PPR. SPR is relatively stable for each patient and reflects the liability for seizures in daily life. The potential efficacy of an AED could be assessed by measuring hourly changes in the SPR after a single oral dose given to the PSE patients.
The study used the IPS/PPR paradigm. It was a multicenter, non-randomized, single blind, within-subject, placebo-controlled proof of concept study conducted to assess the effect of single oral doses of the compounded formula C-7 in suppressing the photoparoxysmal response (PPR) or reducing the standardized photoparoxysmal response range (SPR) in patients with PSE. Photosensitivity was detected using electroencephalography (EEG) measurements of subjects exposed to Intermittent Photic Stimulation (IPS). This EEG response was a photoparoxysmal response (PPR). For the purpose of the study, provocation of PPRs by IPS, not of seizures, was required. The SPR of each patient was the number of standard visual stimulation frequencies (in Hertz) that the patient was sensitive to, between the lower and upper thresholds. 14 frequencies were tested (from 2 to 60 Hertz). The time of onset and the duration of response (PPR suppression or SPR reduction) to the treatment with Compound C-7 in patients with PSE and the maximal reduction in SPR in patients with PSE were also evaluated.
Women of child-bearing potential (WOCBP) were asked to use acceptable methods of contraception. Patients with an SPR value of 3 or less at the screening and patients with no consistent PPR (less than 3 SPR steps difference between the two evaluations required) when stimulated by intermittent photic stimulation (IPS), as determined by comparison between screening and pre-dose Day 1, were excluded from the study. Furthermore subjects with history of status epilepticus and/or regular use of benzodiazepines as rescue medication, subjects with evidence or history of any medically significant cardiac, respiratory, hepatic, gastrointestinal, renal, hematologic, oncologic or progressive neurological disorder, requiring current medical intervention/therapy likely to have a significant impact on the outcome of this study, were also excluded.
There were three periods: a screening period for the assessment of patient's eligibility for participation in the study; a 3-day in hospital treatment period with single-blind dosing with placebo on days 1 and 3, and the compound of formula C-7 on day 2; and a study completion period consisting of a follow-up call by the medical investigator to the patient between day 10 and day 14 inclusive and a full study completion visit between day 29 and day 33 inclusive.
The dose of the compound of formula C-7 in Cohort studies I, II and III was 50, 100 and 15 mg respectively.

Compound: CC(C)c1cc2[nH]c(=O)n(NS(C)(=O)=O)c(=O)c2cc1-c1ccnn1C [Compound C-7, N-[7-Isopropyl-6-(2-methyl-2H-pyrazol-3-yl)-2,4-dioxo-1,4-dihydro-2H-quinazolin-3-yl]-methanesulfonamide]
- In vivo orally active (mouse): Yes
- magnitude of the post-treatment effect between doses (patients with PSE; 15, 50, 100 mg): dose dependent
- PD effect compared to C-7 50 and 100 mg dose groups (patients with PSE; C-7 15 mg dose group): numerically markedly lower PD effect; also recorded: numerically lower but still measurable PD effect
- proportion of subjects with suppression of PPR (patients with PSE; C-7 15 mg dose group): 33%
- patients with complete suppression of PPR (patients with PSE; C-7 15 mg dose group (Cohort III), Day 2): 1 out of 3 and 1 of 3
- maintenance of SPR response and PPR suppression (patients with PSE; C-7 15 mg group): none of the patients maintained the SPR response; also recorded: neither the SPR response nor suppression of PPR was maintained
- onset of suppression of PPR post dosing (patients with PSE; C-7 15 mg group, one patient, eye open only, not maintained): 2 h
- Maximum reduction of SPR: Overall reduction, Mean (SD) (patients with PSE; C-7 15 mg, eye closed, n=3): 6.7 (1.15)
- Maximum reduction of SPR: Overall reduction, Median (patients with PSE; C-7 15 mg, eye closed, n=3): 6.0
- Maximum reduction of SPR: Reduction from predose Day 2, Mean (SD) (patients with PSE; C-7 15 mg, eye closed, n=3): 5.0 (3.61)
- Maximum reduction of SPR: Reduction from predose Day 2, Median (patients with PSE; C-7 15 mg, eye closed, n=3): 6.0
- Maximum reduction of SPR: Overall reduction, Mean (SD) (patients with PSE; C-7 15 mg, eye closure, n=3): 8.0 (1.73)
- Maximum reduction of SPR: Overall reduction, Median (patients with PSE; C-7 15 mg, eye closure, n=3): 9.0
- Maximum reduction of SPR: Reduction from predose Day 2, Mean (SD) (patients with PSE; C-7 15 mg, eye closure, n=3): 7.3 (2.89)
- Maximum reduction of SPR: Reduction from predose Day 2, Median (patients with PSE; C-7 15 mg, eye closure, n=3): 9.0
- Maximum reduction of SPR: Overall reduction, Mean (SD) (patients with PSE; C-7 15 mg, eyes open, n=3): 4.0 (3.46)
- Maximum reduction of SPR: Overall reduction, Median (patients with PSE; C-7 15 mg, eyes open, n=3): 2.0
- Maximum reduction of SPR: Reduction from predose Day 2, Mean (SD) (patients with PSE; C-7 15 mg, eyes open, n=3): 3.0 (4.36)
- Maximum reduction of SPR: Reduction from predose Day 2, Median (patients with PSE; C-7 15 mg, eyes open, n=3): 1.0
- AUECt on Day 2 compared to Day 1 (patients with PSE; C-7 50 mg and 100 mg dose groups, all eye conditions): significantly lower
- proportion of subjects with suppression of PPR (patients with PSE; C-7 50 mg dose group): 50%
- patients with complete suppression of PPR (patients with PSE; C-7 50 mg dose group (Cohort I), Day 2): 3 of 6
- patients with reductions of the SPR range by at least 3 steps in at least one eye condition (patients with PSE; C-7 50 mg dose group (Cohort I, 6 patients), Day 2): 6 patients
- duration of maintained suppression of PPR (patients with PSE; C-7 50 mg group): 2 h and 7 h
- Maximum reduction of SPR: Overall reduction, Mean (SD) (patients with PSE; C-7 50 mg, eye closed, n=6): 6.0 (2.37)
- Maximum reduction of SPR: Overall reduction, Median (patients with PSE; C-7 50 mg, eye closed, n=6): 6.0
- Maximum reduction of SPR: Reduction from predose Day 2, Mean (SD) (patients with PSE; C-7 50 mg, eye closed, n=6): 5.0 (2.00)
- Maximum reduction of SPR: Reduction from predose Day 2, Median (patients with PSE; C-7 50 mg, eye closed, n=6): 5.0
- Maximum reduction of SPR: Overall reduction, Mean (SD) (patients with PSE; C-7 50 mg, eye closure, n=6): 7.7 (3.01)
- Maximum reduction of SPR: Overall reduction, Median (patients with PSE; C-7 50 mg, eye closure, n=6): 8.5
- Maximum reduction of SPR: Reduction from predose Day 2, Mean (SD) (patients with PSE; C-7 50 mg, eye closure, n=6): 6.5 (2.95)
- Maximum reduction of SPR: Reduction from predose Day 2, Median (patients with PSE; C-7 50 mg, eye closure, n=6): 7.5
- Maximum reduction of SPR: Overall reduction, Mean (SD) (patients with PSE; C-7 50 mg, eyes open, n=6): 6.8 (2.99)
- Maximum reduction of SPR: Overall reduction, Median (patients with PSE; C-7 50 mg, eyes open, n=6): 7.5
- Maximum reduction of SPR: Reduction from predose Day 2, Mean (SD) (patients with PSE; C-7 50 mg, eyes open, n=6): 4.8 (3.43)
- Maximum reduction of SPR: Reduction from predose Day 2, Median (patients with PSE; C-7 50 mg, eyes open, n=6): 6.5
- proportion of subjects with suppression of PPR (patients with PSE; C-7 100 mg dose group): 75%
- time to maximum reduction of SPR compared to the other 2 dose groups (patients with PSE; C-7 100 mg dose group): shorter
- patients with complete suppression of PPR (patients with PSE; C-7 100 mg dose group (Cohort II), Day 2): 3 out of 4 and 3 of 4
- duration of maintained suppression of PPR (patients with PSE; C-7 100 mg group): 4 h and 3 h
- Maximum reduction of SPR: Overall reduction, Mean (SD) (patients with PSE; C-7 100 mg, eye closed, n=4): 7.5 (2.38)
- Maximum reduction of SPR: Overall reduction, Median (patients with PSE; C-7 100 mg, eye closed, n=4): 8.5
- Maximum reduction of SPR: Reduction from predose Day 2, Mean (SD) (patients with PSE; C-7 100 mg, eye closed, n=4): 6.5 (2.38)
- Maximum reduction of SPR: Reduction from predose Day 2, Median (patients with PSE; C-7 100 mg, eye closed, n=4): 6.5
- Maximum reduction of SPR: Overall reduction, Mean (SD) (patients with PSE; C-7 100 mg, eye closure, n=4): 9.3 (2.22)
- Maximum reduction of SPR: Overall reduction, Median (patients with PSE; C-7 100 mg, eye closure, n=4): 10.0
- Maximum reduction of SPR: Reduction from predose Day 2, Mean (SD) (patients with PSE; C-7 100 mg, eye closure, n=4): 8.3 (1.50)
- Maximum reduction of SPR: Reduction from predose Day 2, Median (patients with PSE; C-7 100 mg, eye closure, n=4): 9.0
- Maximum reduction of SPR: Overall reduction, Mean (SD) (patients with PSE; C-7 100 mg, eyes open, n=4): 8.8 (2.50)
- Maximum reduction of SPR: Overall reduction, Median (patients with PSE; C-7 100 mg, eyes open, n=4): 8.5
- Maximum reduction of SPR: Reduction from predose Day 2, Mean (SD) (patients with PSE; C-7 100 mg, eyes open, n=4): 7.0 (1.41)
- Maximum reduction of SPR: Reduction from predose Day 2, Median (patients with PSE; C-7 100 mg, eyes open, n=4): 6.5
- maximum duration of maintenance of suppression of PPR (patients with PSE; C-7 50 and 100 mg dose groups): 7 h
- duration of maintained SPR response (maximum duration of maintenance) (patients with PSE; C-7 50 and 100 mg dose groups, patients staying in responding status): 33 h
- PD effect of C7 (patients with PSE; Cohort I, C-7 50 mg single oral dose): Suppression of PPR^e; also recorded: Reduction of SPR (≧3)
- Effect maintained: reduction of SPR (≧3) (patients with PSE; Cohort I, C-7 50 mg): No (4×) and Yes (2×)
- Effect maintained: suppression of PPR (patients with PSE; Cohort I, C-7 50 mg): No (2×) and Yes (2×)
- Onset Time of reduction of SPR (≧3) (patients with PSE; Cohort I, C-7 50 mg): 2 h (2×) and 1 h (3×)
- Onset Time of suppression of PPR (patients with PSE; Cohort I, C-7 50 mg): 2 h and 3 h and 4 h
- PD effect of C7 (patients with PSE; Cohort II, C-7 100 mg single oral dose): Suppression of PPR; also recorded: Reduction of SPR (≧3)
- Effect maintained: reduction of SPR (≧3) (patients with PSE; Cohort II, C-7 100 mg): No (3×) and Yes
- Effect maintained: suppression of PPR (patients with PSE; Cohort II, C-7 100 mg): Yes (2×) and No
- Onset Time of reduction of SPR (≧3) (patients with PSE; Cohort II, C-7 100 mg): 1 h (3×) and 2 h
- Onset Time of suppression of PPR (patients with PSE; Cohort II, C-7 100 mg): 2 h (2×) and 3 h
- PD effect of C7 (patients with PSE; Cohort III, C-7 15 mg single oral dose): Suppression of PPR^e; also recorded: Reduction of SPR (≧3)
- Effect maintained: reduction of SPR (≧3) (patients with PSE; Cohort III, C-7 15 mg): No
- Effect maintained: suppression of PPR (patients with PSE; Cohort III, C-7 15 mg): No
- Onset Time of reduction of SPR (≧3) (patients with PSE; Cohort III, C-7 15 mg): 1 h
- Onset Time of suppression of PPR (patients with PSE; Cohort III, C-7 15 mg): 2 h
- patients with reductions of the SPR range by at least 3 steps in at least one eye condition (patients with PSE; Cohorts II and III (100 mg and 15 mg, 7 patients), Day 2): 7 patients
- patients who showed suppression of PPR (Table 2 count) (patients with PSE; all dose groups, 13 patients, includes suppression noted already at 0 hours): 9 patients
- patients with complete suppression of PPR (patients with PSE; all three dose groups (15, 50, 100 mg)): 7 of the 13 and 7 of 13
- impact of concomitant treatment with selected AEDs on the PD effect of C-7 (patients with PSE; valproate, lamotrigine, levetiracetam, topiramate, zonisamide as concomitant AEDs): did not appear to relevantly impact the PD effect

Reference: patent publication US20140163050A1, “Use of 1H-quinazoline-2,4-diones” (priority 2011, published 2014)
